Results: patent US20240382564A1, “Methods and Compositions for Treating Muscular Dystrophy and Memory Impairment” (Allysta Pharmaceuticals, Inc., priority 2023, published 2024)
“Also recorded” adds a separate entry of the source. Where no end group is shown, it is not given here. [ ]: non-standard residue; d: D form. Nva = CCC[C@H](N)C(=O)O

How the values were obtained:
Format in all cases: in vivo, mouse
[1] = tested on: D2.mdx mice; assay: Cardiac (RV, LV) mitochondrial H2O2 emission and ADP-stimulated respiration
Description: D2.mdx mice were treated daily subcutaneously beginning at 7 days of age for 3 weeks at 1 μL/g with ALY688 at 15 mg/kg body weight (high dose drug; HD) or with a saline (VEH) control. Mice were compared to age-matched wildtypes (DBA/2J). […] However, ADP-stimulated respiration supported by pyruvate was increased in VEH (36%) and HD (46%) vs wildtype whereas HD had no effect vs VEH.

[2] = tested on: D2.mdx mice; assay: In-vitro diaphragm force
Description: D2.mdx mice were treated with ALY688 at two different dosages; high dose (HD; 15 mg/kg body weight/day) or low dose (LD; 3 mg/kg body weight/day) dissolved in saline. A separate group of mice were treated with saline alone (VEH, vehicle). Treatment was provided via subscapular subcutaneous injections from 7 days of age to 28-30 days. […] At 28-30 days of age, mice were anaesthetized with isoflurane vaporized in medical air (21% oxygen) at a 2 L/min flow rate. Due to tissue limitations in limb muscle, certain measures were performed separately in tibialis anterior and quadriceps across several phases of breeding. […]
A silk suture was attached to the central tendons and the ribs and secured in a bath with oxygenated Ringers solution containing (in mM) 121 NaCl, 5 KCl, 1.8 CaCl2, 0.5 MgCl2, 0.4 NaHPO4, 24 NaHCO3, 5.5 glucose and 0.1 EDTA; pH 7.3 (95% O2/5% CO2) maintained at 25° C. with ribs secured to the force transducer with an s-hook and central tendon to the lever arm. […] After the force-frequency protocol was assessed, a 5 minute rest period was provided before a fatiguing protocol was performed (70 Hz for 350 ms every 2 seconds for 5 minutes). Recovery from fatigue was assessed at 5-, 10- and 15-minutes post fatigue at the frequency that elicited maximum force in the force-frequency protocol. […]

[3] = tested on: D2.mdx mice; assay: Novel object recognition test; conditions: 15 mg/kg b.w. daily, days 7 to 28 of age
Description: Male D2.mdx mice originated from a colony maintained at York University (Toronto, Canada) and sourced from Jackson Laboratories (Stock Number 013141, Bar Harbor, United States). Mice were treated daily from days 7 to 28 of age with ALY688 at 15 mg/kg b.w. (D2.mdx-ALY688) or saline control (D2.mdx-VEH). This age was chosen given it captures an early stage of disease progression in cardiac and skeletal muscle. Mice were sacrificed 20-24 hr after the last dose. Breeding of wildtype mice was unsuccessful. Instead, three-week-old wildtype DBA/2J WT mice (D2A) were obtained from Jackson Laboratories (Stock number 000671, Bar Harbor, United States) and allowed to acclimatize for one week before sacrifice. Mice were housed in standard 12:12-hr light:dark cycles and were allowed access to standard rodent chow and water ad libitum. 4 days prior to sacrifice, all groups underwent novel object recognition acclimatization and testing as described below. Mice were anesthetized under 5% isoflurane vaporized in medical air (21% oxygen) at a flow rate of 2 L/min and then maintained at 2-3% prior to euthanasia by exsanguination. […]
The novel object recognition test (NOR) was performed as previously described in literature. […] Sessions were recorded with a cell-phone video camera secured above the apparatus. […] Discrimination ratio (DR) was calculated as follows: DR=(Time(object 2)−Time(object 1))/Total time.

**Q.** [dN]IP[Nva]LY[dS]FA[dS]-NH2 [ALY688] was tested. Which “ADP-stimulated respiration supported by pyruvate, HD vs VEH” value ([1]; LV) did it give?
**A.** no effect

**Q.** And the “ADP-stimulated respiration supported by pyruvate, increase vs wildtype” value ([1]; LV, HD, VEH 36%)?
**A.** 46%

**Q.** What about the “mH2O2 emissions supported by pyruvate” value ([1]; LV, between groups) of the same substance?
**A.** not different between groups

**Q.** And the “ADP-stimulated respiration supported by pyruvate” value ([1]; RV, HD, VEH −49% vs wildtype)?
**A.** completely rescued

**Q.** What about the “mH2O2 emission stimulated by pyruvate” value ([1]; RV, HD, range of [ADP], VEH +88% vs wildtype) of the same substance?
**A.** did not change

**Q.** And the “muscle force production, change” value ([2]; diaphragm strips, both doses)?
**A.** −2.3% to −43.0

**Q.** And the “recovery from fatigue, change” value ([2]; diaphragm, high dose, printed range also covers quadriceps low dose)?
**A.** −5.3% to −50.9

**Q.** What about the “recognition memory (discrimination index, NOR test)” value [3] of the same substance?
**A.** completely prevented; also recorded: improved recognition memory; also recorded: normalized
